Measured values published in ChEMBL document CHEMBL1157376, “Plasmid-mediated quinolone resistance determinant QnrB4 identified in France in an Enterobacter cloacae clinical isolate coexpressing a QnrS1 determinant” (2007).
In brackets after ≈: the same amount, converted by molar mass.

What was measured:
Format in all cases: functional
[1] = system: Escherichia coli; assay: Antibacterial activity against Escherichia coli TOP10 by E-test
[2] = system: Escherichia coli; assay: Antibacterial activity against Escherichia coli TOP10 containing pS1B plasmid expressing quinolone resistance determinant QnrS1 by E-test
[3] = system: Escherichia coli; assay: Antibacterial activity against Escherichia coli TOP10 containing pS1A plasmid expressing quinolone resistance determinant QnrB4 by E-test
[4] = system: Enterobacter cloacae; assay: Antibacterial activity against Enterobacter cloacae S1 isolate expressing quinolone resistance determinant QnrB4 by E-test

| SMILES | MIC [1] | MIC [2] | MIC [3] | MIC [4] |
| --- | --- | --- | --- | --- |
| CCn1cc(C(=O)O)c(=O)c2ccc(C)nc21 [NALIDIXIC ACID] | 1 µg/mL (≈ 4.31 µM) | 4 µg/mL (≈ 17.2 µM) | 2 µg/mL (≈ 8.61 µM) | > 256 µg/mL |
| C[C@@H]1CN(c2c(F)c(N)c3c(=O)c(C(=O)O)cn(C4CC4)c3c2F)C[C@H](C)N1 [SPARFLOXACIN] | < 0.01 µg/mL | 0.25 µg/mL (≈ 0.637 µM) | 0.03 µg/mL (≈ 0.0765 µM) | > 32 µg/mL |
| O=C(O)c1cn(C2CC2)c2cc(N3CCNCC3)c(F)cc2c1=O [CIPROFLOXACIN] | < 0.01 µg/mL |  |  |  |
| CC1COc2c(N3CCN(C)CC3)c(F)cc3c(=O)c(C(=O)O)cn1c23 (stereo not drawn) [OFLOXACIN] |  | 0.25 µg/mL (≈ 0.692 µM) |  | > 32 µg/mL |
| CCn1cc(C(=O)O)c(=O)c2cc(F)c(N3CCNCC3)cc21 [NORFLOXACIN] | 0.03 µg/mL (≈ 0.0939 µM) | 0.5 µg/mL (≈ 1.57 µM) | 0.25 µg/mL (≈ 0.783 µM) | > 32 µg/mL |
| COc1c(N2C[C@@H]3CCCN[C@@H]3C2)c(F)cc2c(=O)c(C(=O)O)cn(C3CC3)c12 [MOXIFLOXACIN] | < 0.01 µg/mL | 0.25 µg/mL (≈ 0.623 µM) | 0.12 µg/mL (≈ 0.299 µM) |  |
